#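 Growth conditions: 96-well plates. Treatment: test compound, 48 hours, 5 concentrations. Analysis: linear interpolation between bracketing concentrations; unreached endpoints set to highest concentration. At the GI50, growth is halved.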 Active and inactive are the calls of the source. Rule as the data show it: active = GI50 up to about 1.1 µM and inactive = higher.
# Key:
# Experiment in all cases: growth of human tumour cells (NCI), 48 h
# NCI/ADR-RES = system: NCI/ADR-RES
# HL-60 = system: HL-60
# HT-29 = system: HT-29
# A549 = system: A549
# NCI-H522 = system: NCI-H522
# SK-OV-3 = system: SK-OV-3
# UO-31 = system: UO-31
# SW-620 = system: SW-620
# A498 = system: A498
# SK-MEL-5 = system: SK-MEL-5
# NCI-H226 = system: NCI-H226
# SNB-19 = system: SNB-19
# KM12 = system: KM12
# RXF 393 = system: RXF 393
# 786-0 = system: 786-0
# MDA-MB-231 = system: MDA-MB-231
# EKVX = system: EKVX
# Malme-3M = system: Malme-3M
# IGROV-1 = system: IGROV-1
# ACHN = system: ACHN
# SF-268 = system: SF-268
# SNB-75 = system: SNB-75
# MDA-N = system: MDA-N
# SF-295 = system: SF-295
# OVCAR-4 = system: OVCAR-4
# U-251 = system: U-251
# COLO 205 = system: COLO 205
# CAKI-1 = system: CAKI-1
# NCI-H460 = system: NCI-H460
# SF-539 = system: SF-539
# SK-MEL-2 = system: SK-MEL-2
# TK-10 = system: TK-10
# SK-MEL-28 = system: SK-MEL-28
# MDA-MB-435 = system: MDA-MB-435
# K562 = system: K562
# M14 = system: M14
# MOLT-4 = system: MOLT-4
# HCT-15 = system: HCT-15
# SR = system: SR
# PC-3 = system: PC-3
# OVCAR-5 = system: OVCAR-5
# CCRF-CEM = system: CCRF-CEM
# UACC-257 = system: UACC-257
# T47D = system: T47D
# LOX IMVI = system: LOX IMVI
# NCI-H23 = system: NCI-H23
# HCC 2998 = system: HCC 2998
# OVCAR-3 = system: OVCAR-3
# Hs-578T = system: Hs-578T
# HCT-116 = system: HCT-116
# OVCAR-8 = system: OVCAR-8
# HOP-92 = system: HOP-92
# HOP-62 = system: HOP-62
# UACC-62 = system: UACC-62
# SN12C = system: SN12C
# DU-145 = system: DU-145
# MCF7 = system: MCF7
# RPMI-8226 = system: RPMI-8226
smiles,measurement,setting,value
C=Cc1cc2c(cc1O)CC[C@@H]1[C@@H]2CC[C@]2(C)[C@@H](O)CC[C@@H]12,GI50,NCI/ADR-RES,1.77 µM (inactive)
same,GI50,HL-60,2.67 µM (inactive)
same,GI50,HT-29,15.3 µM (inactive)
same,GI50,A549,5.78 µM (inactive)
same,GI50,NCI-H522,4.66 µM (inactive)
same,GI50,SK-OV-3,5.79 µM (inactive)
same,GI50,UO-31,7 µM (inactive)
same,GI50,SW-620,4.32 µM (inactive)
same,GI50,A498,24.4 µM (inactive)
same,GI50,SK-MEL-5,4.39 µM (inactive)
same,GI50,NCI-H226,12.4 µM (inactive)
same,GI50,SNB-19,4.23 µM (inactive)
same,GI50,KM12,5.11 µM (inactive)
same,GI50,RXF 393,2.56 µM (inactive)
same,GI50,786-0,4.13 µM (inactive)
same,GI50,MDA-MB-231,5.33 µM (inactive)
same,GI50,EKVX,7.38 µM (inactive)
same,GI50,Malme-3M,2.18 µM (inactive)
same,GI50,IGROV-1,8.09 µM (inactive)
same,GI50,ACHN,7.23 µM (inactive)
same,GI50,SF-268,4.16 µM (inactive)
same,GI50,SNB-75,5.38 µM (inactive)
same,GI50,MDA-N,1.45 µM (inactive)
same,GI50,SF-295,3.82 µM (inactive)
same,GI50,OVCAR-4,11.2 µM (inactive)
same,GI50,U-251,4.19 µM (inactive)
same,GI50,COLO 205,15.4 µM (inactive)
same,GI50,CAKI-1,7.94 µM (inactive)
same,GI50,NCI-H460,3.94 µM (inactive)
same,GI50,SF-539,2.06 µM (inactive)
same,GI50,SK-MEL-2,5.78 µM (inactive)
same,GI50,TK-10,12.2 µM (inactive)
same,GI50,SK-MEL-28,4.06 µM (inactive)
same,GI50,MDA-MB-435,1.09 µM (active)
same,GI50,K562,3.03 µM (inactive)
same,GI50,M14,5.4 µM (inactive)
same,GI50,MOLT-4,3.9 µM (inactive)
same,GI50,HCT-15,3.95 µM
same,GI50,SR,1.97 µM (inactive)
same,GI50,PC-3,11.6 µM (inactive)
same,GI50,OVCAR-5,21.3 µM (inactive)
same,GI50,CCRF-CEM,4.15 µM (inactive)
same,GI50,UACC-257,4.15 µM (inactive)
same,GI50,T47D,8.79 µM (inactive)
same,GI50,LOX IMVI,8.63 µM (inactive)
same,GI50,NCI-H23,3.18 µM (inactive)
same,GI50,HCC 2998,11.2 µM (inactive)
CC1(C)CC2=NOS3=C2C(=NO3)C1c1ccccn1 (stereo not drawn),GI50,NCI/ADR-RES,> 100 µM (inactive)
same,GI50,HL-60,24.3 µM (inactive)
same,GI50,HT-29,56.8 µM (inactive)
same,GI50,A549,83.2 µM (inactive)
same,GI50,NCI-H522,38.5 µM (inactive)
same,GI50,OVCAR-3,31 µM (inactive)
same,GI50,SK-OV-3,> 100 µM (inactive)
same,GI50,Hs-578T,> 100 µM (inactive)
same,GI50,UO-31,61.7 µM (inactive)
same,GI50,HCT-116,48.8 µM (inactive)
same,GI50,SW-620,69.5 µM (inactive)
same,GI50,A498,> 100 µM (inactive)
same,GI50,SK-MEL-5,17.8 µM (inactive)
same,GI50,OVCAR-8,39.5 µM (inactive)
same,GI50,SNB-19,> 100 µM (inactive)
same,GI50,KM12,61.2 µM (inactive)
same,GI50,HOP-92,> 100 µM (inactive)
same,GI50,786-0,34.7 µM (inactive)
same,GI50,MDA-MB-231,> 100 µM (inactive)
same,GI50,EKVX,> 100 µM (inactive)
same,GI50,Malme-3M,46.9 µM (inactive)
same,GI50,IGROV-1,29.6 µM (inactive)
same,GI50,ACHN,74.8 µM (inactive)
same,GI50,SF-268,> 100 µM (inactive)
same,GI50,SNB-75,> 100 µM (inactive)
same,GI50,HOP-62,> 100 µM (inactive)
same,GI50,MDA-N,30.9 µM (inactive)
same,GI50,SF-295,> 100 µM (inactive)
same,GI50,OVCAR-4,> 100 µM (inactive)
same,GI50,U-251,> 100 µM (inactive)
same,GI50,COLO 205,31.2 µM (inactive)
same,GI50,CAKI-1,> 100 µM (inactive)
same,GI50,NCI-H460,33.7 µM (inactive)
same,GI50,SF-539,64 µM (inactive)
same,GI50,SK-MEL-2,> 100 µM (inactive)
same,GI50,TK-10,> 100 µM (inactive)
same,GI50,SK-MEL-28,> 100 µM (inactive)
same,GI50,MDA-MB-435,18.6 µM (inactive)
same,GI50,K562,24 µM (inactive)
same,GI50,UACC-62,44.1 µM (inactive)
same,GI50,SN12C,> 100 µM (inactive)
same,GI50,M14,40.7 µM (inactive)
same,GI50,MOLT-4,34.3 µM (inactive)
same,GI50,DU-145,> 100 µM (inactive)
same,GI50,HCT-15,20 µM
same,GI50,SR,39.3 µM (inactive)
same,GI50,PC-3,> 100 µM (inactive)
same,GI50,MCF7,> 100 µM (inactive)
same,GI50,OVCAR-5,> 100 µM (inactive)
same,GI50,CCRF-CEM,29 µM (inactive)
same,GI50,RPMI-8226,> 100 µM (inactive)
same,GI50,UACC-257,28.9 µM (inactive)
same,GI50,T47D,> 100 µM (inactive)
same,GI50,LOX IMVI,36.1 µM (inactive)
same,GI50,NCI-H23,> 100 µM (inactive)
same,GI50,HCC 2998,> 100 µM (inactive)

# From ChEMBL document CHEMBL1201862, “PubChem BioAssay data set” (2004)
